The term IC50 denotes the concentration that gives 50% inhibition. A higher IC50 goes with weaker potency.

The values that follow come from patent publication US20260070902A1, “SULFONYL DERIVATIVES AS CCR6 INHIBITORS” (Hoffmann-La Roche Inc., priority 2022, published 2026).

Experiment [1] deals with T1, human CCR6 (Homo sapiens, UniProt P51684).
T1 sequence (P51684 1-374): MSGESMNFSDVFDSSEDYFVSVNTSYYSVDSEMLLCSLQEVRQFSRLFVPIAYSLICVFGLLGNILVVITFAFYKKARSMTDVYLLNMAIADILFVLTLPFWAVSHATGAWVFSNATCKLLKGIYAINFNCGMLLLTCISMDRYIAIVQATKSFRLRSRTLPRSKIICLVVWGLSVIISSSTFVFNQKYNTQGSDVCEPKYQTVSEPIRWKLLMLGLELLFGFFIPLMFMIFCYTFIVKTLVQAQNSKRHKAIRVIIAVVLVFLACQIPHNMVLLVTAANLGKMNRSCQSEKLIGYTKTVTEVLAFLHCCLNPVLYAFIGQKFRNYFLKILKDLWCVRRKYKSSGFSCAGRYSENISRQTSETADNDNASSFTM
In words: CHO-K1 CCR6 chemotaxis assay towards CCL20. It counts as cell-based. Conditions: relative -Log IC50; CHO-K1 cells overexpressing human CCR6; migration towards 100 ng/ml CCL20; 4 h. The source says: CHO-K1 CCR6 Chemotaxis Assay Towards CCL20
Cells overexpressing human CCR6 were used in the chemotaxis assay (DiscoverX, cAMP Hunter™ CHO-K1 CCR6 Gi Cell Line). Growth medium of these cells consisted of DMEM/F12, non-essential Amino acids (1×NEAA, Gibco 11140050), 10% FBS and 1× pen/strep (Gibco 15140). For the chemotaxis assay, Corning Transwell plates were used with a pore size of 8 m (Corning 351164). Cells were harvested using trypsin and diluted to 4*10^6 cells/ml in chemotaxis medium (DMEM, 0.25% BSA, pen/strep). Compounds were four-fold serially diluted in DMSO. Further dilutions were made in chemotaxis medium. Cells were incubated with test compounds for 30 min at 37° C. prior to initiation of the assay (2*10^6 cells/ml). Final DMSO concentration in the assay was 0.2%. Wells of the Transwell plates were filled with 200 μl chemotaxis medium containing 100 ng/ml CCL20 (R&D systems 360-MP). 50 μl of the cell/compound suspension was added to the inserts of the Transwell plates (100,000 cells/insert). The Transwell plates were placed in an incubator at 37° C., 5% CO2 for 4 h. After 4 h, the number of migrated cells was quantified using CellTiter Glo (Promega). Percentage inhibition values were calculated based on the low and high signal obtained with 0.2% DMSO in chemotaxis medium without and with CCL20, respectively. The relative −Log IC50 was determined with GraphPad Prism 9 using a four-parameter dose-response model.

Experiment [2] addresses T1, human CCR6. In words: Human CCR6-CRE reporter assay. The arrangement: The second construct contained the open reading frame of human CCR6 in the pUNO1 backbone; host or cells: 293FT cells. Conditions: relative -Log IC50; 293FT cells transfected with human CCR6 and CRE-luciferase reporter; 6 μM Forskolin, 6 nM CCL20; 5 h. It counts as cell-based. The essentials:
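293FT cells transiently co-transfected with human CCR6 and a CRE-luc2P reporter, used 48 h later. Compounds incubated with cells in medium containing 6 μM Forskolin and 6 nM CCL20 (assay-medium levels), 0.1% DMSO final, 5 h at 37° C; luminescence read, relative −Log IC50 from four-parameter fit.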
In general terms: In a reporter assay the amount or activity of a reporter protein is the signal.

As to `CNC(=O)c1cc(-c2ccc(S(=O)(=O)[C@H]3CC[C@H](Nc4ccc(S(F)(F)(F)(F)F)cc4)CC3)cc2)ccn1` [Example 48, N-methyl-4-(4-{[trans-4-{[4-(pentafluoro-λ^6-sulfanyl)phenyl]Amino}cyclohexyl]sulfonyl}phenyl)pyridine-2-carboxamide], the IC50 against human CCR6 [1] and against human CCR6 [2] was 39.8 nM throughout.
As for `NC(=O)c1ccc(-c2ccc(S(=O)(=O)[C@H]3CC[C@H](Nc4ccc(S(F)(F)(F)(F)F)cc4)CC3)cc2)nc1` [Example 49, 6-(4-{[trans-4-{[4-(pentafluoro-λ^6-sulfanyl)phenyl]Amino}cyclohexyl]sulfonyl}phenyl)pyridine-3-carboxamide], the results for the IC50 against human CCR6 [1] and at human CCR6 [2] were 501 nM and 79.4 nM, respectively.
On to `O=C1NCc2cc(-c3ccc(S(=O)(=O)[C@H]4CC[C@H](Nc5ccc(S(F)(F)(F)(F)F)cc5)CC4)cc3)ccc21` [Example 58, 5-(4-{[trans-4-{[4-(pentafluoro-λ^6-sulfanyl)phenyl]Amino}cyclohexyl]sulfonyl}phenyl)-2,3-dihydro-1H-isoindol-1-one], for which the IC50 at human CCR6 [1] is 15.8 nM; on human CCR6 [2], 200 nM.
With `O=C1Cc2ccc(-c3ccc(S(=O)(=O)[C@H]4CC[C@H](Nc5ccc(S(F)(F)(F)(F)F)cc5)CC4)cc3)cc2N1` [Example 59, 6-(4-{[trans-4-{[4-(pentafluoro-λ^6-sulfanyl)phenyl]Amino}cyclohexyl]sulfonyl}phenyl)-2,3-dihydro-1H-indol-2-one], the IC50 against human CCR6 [1] was 15.8 nM; on human CCR6 [2] it was 158 nM.
The matching figures for `O=C1NCCc2ccc(-c3ccc(S(=O)(=O)[C@H]4CC[C@H](Nc5ccc(S(F)(F)(F)(F)F)cc5)CC4)cc3)cc21` [Example 60, 7-(4-{[trans-4-{[4-(pentafluoro-λ^6-sulfanyl)phenyl]Amino}cyclohexyl]sulfonyl}phenyl)-1,2,3,4-tetrahydroisoquinolin-1-one]: 7.94 nM and 158 nM.
The matching figures for `O=C1NCCc2cc(-c3ccc(S(=O)(=O)[C@H]4CC[C@H](Nc5ccc(S(F)(F)(F)(F)F)cc5)CC4)cc3)ccc21` [Example 61, 6-(4-{[trans-4-{[4-(pentafluoro-λ^6-sulfanyl)phenyl]Amino}cyclohexyl]sulfonyl}phenyl)-1,2,3,4-tetrahydroisoquinolin-1-one]: 31.6 nM and 126 nM.
The matching figures for `CC(C)c1cnc2ccc(-c3ccc(S(=O)(=O)[C@H]4CC[C@H](Nc5ccc(S(F)(F)(F)(F)F)cc5)CC4)cc3)cn12` [Example 63, 4-(pentafluoro-λ^6-sulfanyl)-N-[trans-4-{4-[3-(propan-2-yl)imidazo[1,2-a]pyridin-6-yl]benzenesulfonyl}cyclohexyl]aniline]: 12.6 nM and 39.8 nM.
Take `O=c1[nH]nc2ccc(-c3ccc(S(=O)(=O)[C@H]4CC[C@H](Nc5ccc(S(F)(F)(F)(F)F)cc5)CC4)cc3)cn12` [Example 66, 6-(4-{[trans-4-{[4-(pentafluoro-λ^6-sulfanyl)phenyl]Amino}cyclohexyl]sulfonyl}phenyl)-2H,3H-[1,2,4]triazolo[4,3-a]pyridin-3-one]: the IC50 was 39.8 nM on human CCR6 [1] and 63.1 nM against human CCR6 [2].
For `Cc1cnc2ccc(-c3ccc(S(=O)(=O)N4CCC(Nc5ccc(S(F)(F)(F)(F)F)cc5)CC4)cn3)cn12` [Example 69, 1-[(6-{3-methylimidazo[1,2-a]pyridin-6-yl}pyridin-3-yl)sulfonyl]-N-[4-(pentafluoro-λ^6-sulfanyl)phenyl]piperidin-4-amine], in that order: 794 nM and 794 nM.
The matching figures for `N#Cc1cnc2ccc(-c3ccc(S(=O)(=O)N4CCC(Nc5ccc(S(F)(F)(F)(F)F)cc5)CC4)c(F)c3)cn12` [Example 73, 6-{3-fluoro-4-[(4-{[4-(pentafluoro-λ^6-sulfanyl)phenyl]Amino}piperidin-1-yl)sulfonyl]phenyl}imidazo[1,2-a]pyridine-3-carbonitrile]: 631 nM and 501 nM.
The matching figures for `O=S(=O)(c1ccc(-c2ccc3nccn3c2)cc1F)N1CCC(Nc2ccc(S(F)(F)(F)(F)F)cc2)CC1` [Example 74, 1-(2-fluoro-4-{imidazo[1,2-a]pyridin-6-yl}benzenesulfonyl)-N-[4-(pentafluoro-λ^6-sulfanyl)phenyl]piperidin-4-amine]: 794 nM and 501 nM.
As to `N#Cc1cnc2ccc(-c3ccc(S(=O)(=O)N4CCC(Nc5ccc(S(F)(F)(F)(F)F)cc5)CC4)cn3)cn12` [Example 76, 6-{5-[(4-{[4-(pentafluoro-λ^6-sulfanyl)phenyl]Amino}piperidin-1-yl)sulfonyl]pyridin-2-yl}imidazo[1,2-a]pyridine-3-carbonitrile], the results for the IC50 on human CCR6 [1] and on human CCR6 [2] were 501 nM and 794 nM, respectively.
For `CC(C)c1nnc2ccc(-c3ccc(S(=O)(=O)N4CCC(Nc5cccc(S(F)(F)(F)(F)F)c5)CC4)cc3)cn12` [Example 84, N-[3-(pentafluoro-λ^6-sulfanyl)phenyl]-1-{4-[3-(propan-2-yl)-[1,2,4]triazolo[4,3-a]pyridin-6-yl]benzenesulfonyl}piperidin-4-amine], in that order: 126 nM and 50.1 nM.
For `CN(C)C(=O)c1ccc(-c2ccc(S(=N)(=O)[C@H]3CC[C@H](Nc4ccc(S(F)(F)(F)(F)F)cc4)CC3)cc2)cc1` (stereo partly drawn) [Example 92, N,N-dimethyl-4′-{[trans-4-{[4-(pentafluoro-λ^6-sulfanyl)phenyl]Amino}cyclohexyl]sulfonimidoyl}-[1,1′-biphenyl]-4-carboxamide], in that order: 1580 nM and 200 nM.
The matching figures for `CNC(=O)c1ccc(-c2ccc(S(=N)(=O)[C@H]3CC[C@H](Nc4ccc(S(F)(F)(F)(F)F)cc4)CC3)cc2)cc1` (stereo partly drawn) [Example 95, N-methyl-4′-{[trans-4-{[4-(pentafluoro-λ^6-sulfanyl)phenyl]Amino}cyclohexyl]sulfonimidoyl}-[1,1′-biphenyl]-4-carboxamide]: 501 nM and 251 nM.
Regarding `N=S(=O)(c1ccc(-c2ccc(C(N)=O)cc2)cc1)[C@H]1CC[C@H](Nc2ccc(S(F)(F)(F)(F)F)cc2)CC1` (stereo partly drawn) [Example 96, 4′-{[trans-4-{[4-(pentafluoro-λ^6-sulfanyl)phenyl]Amino}cyclohexyl]sulfonimidoyl}-[1,1′-biphenyl]-4-carboxamide], the IC50 is 501 nM against human CCR6 [1] and 158 nM at human CCR6 [2].
For `CNC(=O)c1cccc(-c2ccc(S(=N)(=O)[C@H]3CC[C@H](Nc4ccc(S(F)(F)(F)(F)F)cc4)CC3)cc2)c1` (stereo partly drawn) [Example 98, N-methyl-4′-{[trans-4-{[4-(pentafluoro-λ^6-sulfanyl)phenyl]Amino}cyclohexyl]sulfonimidoyl}-[1,1′-biphenyl]-3-carboxamide], in that order: 251 nM and 200 nM.
For `N=S(=O)(c1ccc(-c2cccc(C(N)=O)c2)cc1)[C@H]1CC[C@H](Nc2ccc(S(F)(F)(F)(F)F)cc2)CC1` (stereo partly drawn) [Example 99, 4′-{[trans-4-{[4-(pentafluoro-λ^6-sulfanyl)phenyl]Amino}cyclohexyl]sulfonimidoyl}-[1,1′-biphenyl]-3-carboxamide], in that order: 501 nM and 200 nM.
`CNC(=O)c1ccc(-c2ccc(S(=N)(=O)[C@H]3CC[C@H](Nc4ccc(S(F)(F)(F)(F)F)cc4)CC3)cc2)cn1` (stereo partly drawn) [Example 101, N-methyl-5-(4-{[trans-4-{[4-(pentafluoro-λ^6-sulfanyl)phenyl]Amino}cyclohexyl]sulfonimidoyl}phenyl)pyridine-2-carboxamide]: the IC50 against human CCR6 [1] is 794 nM; against human CCR6 [2] it was 316 nM.
The matching figures for `Cc1nnc2ccc(-c3ccc(S(=N)(=O)[C@H]4CC[C@H](Nc5ccc(S(F)(F)(F)(F)F)cc5)CC4)cc3)cn12` (stereo partly drawn) [Example 105, (4-{3-methyl-[1,2,4]triazolo[4,3-a]pyridin-6-yl}phenyl)[trans-4-{[4-(pentafluoro-λ^6-sulfanyl)phenyl]Amino}cyclohexyl](imino)-λ^6-sulfanone]: 631 nM and 398 nM.
